{"source": "patent US9642821B2", "about": "“MiR-182 in the diagnosis and treatment of cancer” (Dana-Farber Cancer Institute, Inc., priority 2010, dated 2017)", "format_in_all_cases": "cell-based", "key": {"MDA-MB231 cells": {"test_system": "MDA-MB231 cells", "assay": "Clonogenic cell survival assay with PARP inhibitors, MDA-MB231", "conditions": "MDA-MB231, 14 days, vs control mimic", "procedure": "Hela cells (0.35×10^6 cells/well), MDA-MB231 cells (0.4×10^6 cells/well), 21NT cells (0.5×10^6) were seeded overnight and transfected with 10 nM of miRNA mimics or antagomirs (Ambion, Austin, Tex.) using Lipofectamine 2000. In rescue experiments, miR-182 or control mimics were co-transfected with 1 μg/ml BRCA1 (pcDNA3.1 vector). After 2 days, 1000 cells in 4 ml DMEM media (10% FBS v/v) were seeded on 6 cm tissue culture dishes in four replicates and allowed to attach overnight before treatment. PARP inhibitors (4-amino-1,8-naphthalimide (Sigma, St. Louis, Mo.) or ABT-888 (ChemieTek, Indianapolis, Ind.) in DMSO) were added to the growth media at indicated concentrations. Irradiated cells as well as cells in the presence of PARP inhibitor were allowed to form colonies for 14 days. For evaluation, formed colonies were stained with crystal violet and surviving colonies containing >50 cells were counted. Plating efficiency was 30-50%."}, "BRCA1 transcript": {"test_system": "BRCA1 transcript", "assay": "Immunoprecipitation of HA-AGO1/miRNA complex, qRT-PCR of bound transcripts, MDA-MB231", "conditions": "MDA-MB231, HA-AGO1 IP, normalized to 5S rRNA", "procedure": "miR-182 cDNA and miR-17 cDNA was cloned from HL60 cDNA in pcDNA3.1-Puro expression vector (Invitrogen, Carlsbad, Calif.) using the following primers: […]\nMDA-MB231 cells (0.5×10^6 cells) were co-transfected with 1 μg of HA-AGO1 (pIRES-FLAG/HA vector, Addgene) and 0.5 μg of expression vector for miR-182/miR-17 or miR-scr using Lipofectamine 2000. After 2 days cells were harvested using 400 μl lysis buffer (100 mM KCl, 5 mM MgCl2, 10 mM Hepes, pH 7.0, 0.5% Nonidet P-40) containing freshly added RNase inhibitor, RNaseOUT (Invitrogen, Carlsbad, Calif.) and Protease Inhibitor Cocktail (Roche, Basel, Switzerland). After centrifugation, a 50 μl aliquot of supernatant was taken as the input for subsequent RNA extraction. The remaining supernatant was gently shaken with HA-beads (HA-probe Santa Cruz sc-7392) for 4 h at 4° C. in spin columns (Pierce Spin Columns-Screw Cap). The columns were drained, washed and the retained beads were treated with 5 U DNaseI in NT2 buffer (50 mM Tris, pH7.4, 150 mM NaCl, 1 mM MgCl2, 0.05% Nonidet P-40) for 10 minutes at 37° C., washed with NT2 buffer and then treated with Proteinase K in NT2 buffer plus 1% SDS for 30 minutes at 55° C. […] RNA was reverse transcribed (see RNA isolation) and analyzed with qPCR for enrichment of mRNA of miR-182/miR-17 predicted targets."}, "BRCA1": {"test_system": "BRCA1", "assay": "BRCA1 immunoblot in MDA-MB231 cells", "conditions": "MDA-MB231 cells overexpressing miR-182 vs miR-scr", "procedure": "In each experiment, where Western blot analysis was done, a fraction of 0.2−0.5×10^6 cells was taken out at day, 3 or 4, post-transfection. Breast cancer cell lines were collected from 6 well tissue culture plates (0.5-1×10^6 cells). Cells lysates were prepared in RIPA buffer (150 mM NaCl, 1% NP-40, 0.5% sodium deoxycholate, 0.1% SDS, 50 mM Tris, pH 8.0). Lysates of 0.1×10^6 cells of each sample plus loading buffer were loaded on 8% SDS-PAGE gels, semi-dry transferred on nitrocellulose membrane, and probed with anti-BRCA1 antibody at a 1:500 dilution (CALBIOCHEM, MS110) and anti-tubulin antibody at a 1:10,000 dilution (Sigma, Clone B-5-1-2)."}}, "note": "Entries after “also recorded” stand apart in the source; their conditions may differ.", "data": [{"substance": "miR-182: microRNA with sequence 5′ UUUGGCAAUGGUAGAACUCACACU 3′ (SEQ ID NO:1); given as mimic (Ambion) or expression vector (UUUGGCAAUGGUAGAACUCACACU; listed as RNA, chemistry not given here; listed as Homo sapiens)", "values": [{"measurement": "sensitivity to PARP1 inhibitor ABT-888 (clonogenic survival)", "setting": "MDA-MB231 cells", "result": "sensitize MDA-MB231 cells to PARP1 inhibition"}, {"measurement": "sensitivity to PARP1 inhibitor ANI (clonogenic survival)", "setting": "MDA-MB231 cells", "result": "sensitize MDA-MB231 cells to PARP1 inhibition"}, {"measurement": "sensitivity to PARP1 inhibitor ABT-888 (clonogenic survival)", "setting": "MDA-MB231 cells; listed as 182 mimic", "result": "impacts sensitivity to PARP1 inhibitor ABT-888"}, {"measurement": "sensitivity to PARP1 inhibitor ANI (clonogenic survival)", "setting": "MDA-MB231 cells; listed as miR-182 mimic", "result": "significantly enhanced sensitivity to ANI"}, {"measurement": "association of miRNA/AGO1 complex with BRCA1 transcript", "setting": "BRCA1 transcript", "result": "associates selectively; also recorded: significantly enriched"}, {"measurement": "BRCA1 protein level", "setting": "BRCA1", "result": "sharply reduced; also recorded: lower levels; also recorded: diminish BRCA1 levels; also recorded: down regulates BRCA1 protein levels"}]}]}
